Earlier results as cited in patent publication US5690961A, “Acidic polysaccharides crosslinked with polycarboxylic acids and their uses” (Hercules Incorporated, priority 1994, dated 1997).

Conditions: in vivo

hyaluronic acid
half-life of hyaluronic acid injected in a joint: about 13 hours
